Consider 26 compounds from patent US8889668B2, “Oxadiazole diaryl compounds” (Merck Serono SA, priority 2007, dated 2014).

The target of assay [1] is T1, S1P1 (Homo sapiens (Human), UniProt P21453). Put plainly: 35S-GTPγS binding, membranes from CHO cells expressing S1P1. In kind it is biochemical. Conditions: 60 min 30° C., read-out: S1P1 GTPgS EC50.
Assay [2] addresses S1P3 (Homo sapiens (Human), UniProt Q99500). Put plainly: 35S-GTPγS binding, membranes from CHO cells expressing S1P3. In kind it is biochemical. Conditions: 60 min 30° C., read-out: S1P3 GTPgs EC50. The method, then: (§1) Receptor binding assay: Membranes were prepared from CHO cells expressing S1P1 or S1P3 for use in ligand and […] binding studies. Cells were suspended in 50 mM TRIS, pH 7.4, 2 mM EDTA, 250 mM Sucrose (buffer A) and 1× Complete protease inhibitor cocktail (Roche), and disrupted at 4° C. by nitrogen decompression using a cell disruption bomb (Parr Instrument). Following centrifugation at 1000 RPM for 10 min at 4° C., the supernatant was suspended in buffer A and centrifuged again at 19000 RPM for 60 min at 4° C. The pellet was then suspended in 10 mM HEPES, pH 7.4, 1 mM EDTA, 250 mM Sucrose (Buffer B), and 1× Complete EDTA-free protease inhibitor cocktail and homogenized using a potter. Membranes were flash frozen in liquid nitrogen and stored at −80° C. [33P]sphingosine 1-phosphate (3000 Ci/mmol; American Radiolabeled Chemicals, Inc.) was added to test compounds in DMSO. Membranes and WGA SPA beads (GE Healthcare) were added to give a final volume of 100 μl in 96-well plates with assay concentrations of 25 pM or 10 pM [33P]sphingosine 1-phosphate (respectively for S1P1 or S1P3), 50 mM HEPES, pH 7.5, 5 mM MgCl2, 100 mM NaCl, 0.4% fatty acid-free BSA, 1-5 μg/well of proteins and 100 μg/well of WGA SPA beads. Binding was performed for 60 min at room temperature on a shaker and bound radioactivity was measured on a PerkinElmer 1450 MicroBeta counter. Specific binding was calculated by subtracting remaining radioactivity in the presence of 1000-fold excess of unlabeled S1P. Binding data were analyzed using the GraphPad Prism program.
Measurements of ^35S-GTPγS Binding: Membranes (1 to 10 μg protein) prepared as described above, were incubated in 96-well Scintiplates (PerkinElmer) with test compounds diluted in DMSO, in 180 μl of 20 mM HEPES, pH 7.4, 10 mM MgCl2, 2 μg/well Saponin, 0.2% fatty acid free BSA (Assay buffer), 140 mM NaCl and 1.7 μM GDP. The assay was initiated with the addition of 20 μl of 1.5 nM [35S]-GTPγS (1100 Ci/mmol; GE Healthcare) in assay buffer. After 60 min incubation at 30° C. on a shaker, plates were centrifuged for 10 min at 2000 RPM. Supernatant was discarded and membrane bound radioactivity was measured on a PerkinElmer 1450 MicroBeta counter. Triplicate samples were averaged and expressed as % response relative to S1P activation in absence of compound (n=2).

Assay [3] concerns the target T1, S1P1. Put plainly: Receptor binding assay, [33P]sphingosine 1-phosphate, membranes from CHO cells expressing S1P1. Conditions: [33P]S1P 25 pM, SPA. The method, then: as §1

T1 sequence (P21453 whole entry, species assumed): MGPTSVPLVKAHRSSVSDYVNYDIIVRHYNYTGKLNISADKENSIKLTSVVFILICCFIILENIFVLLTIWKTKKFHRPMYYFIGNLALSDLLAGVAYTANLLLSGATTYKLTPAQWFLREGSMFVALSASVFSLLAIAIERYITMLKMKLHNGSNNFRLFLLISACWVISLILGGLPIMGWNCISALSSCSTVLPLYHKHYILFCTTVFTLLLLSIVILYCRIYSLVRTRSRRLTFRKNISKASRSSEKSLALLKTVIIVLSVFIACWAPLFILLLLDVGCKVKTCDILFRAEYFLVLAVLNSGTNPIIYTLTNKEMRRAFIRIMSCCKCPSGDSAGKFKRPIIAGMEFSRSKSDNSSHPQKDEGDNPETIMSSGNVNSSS
S1P3, sequence (Q99500 whole entry, species assumed): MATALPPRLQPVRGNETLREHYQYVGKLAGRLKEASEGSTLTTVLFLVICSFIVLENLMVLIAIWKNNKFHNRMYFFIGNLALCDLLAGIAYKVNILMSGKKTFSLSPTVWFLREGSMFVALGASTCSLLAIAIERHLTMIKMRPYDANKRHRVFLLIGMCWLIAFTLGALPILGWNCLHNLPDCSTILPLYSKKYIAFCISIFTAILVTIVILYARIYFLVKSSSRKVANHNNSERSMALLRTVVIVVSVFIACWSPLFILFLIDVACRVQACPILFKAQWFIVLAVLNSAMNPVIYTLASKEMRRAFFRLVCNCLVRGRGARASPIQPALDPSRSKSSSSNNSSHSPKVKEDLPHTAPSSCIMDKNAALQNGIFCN

For `COc1ccccc1-c1noc(-c2ccc(C3CCCCC3)cc2)n1` [Compound I27, 5-(4-cyclohexylphenyl)-3-(2-methoxyphenyl)-1,2,4-oxadiazole], the EC50 is 66 nM in assay [1] and more than 30000 nM in assay [2]. The same compound yielded a Ki in assay [3] of 20 nM.
Consider `COc1ccccc1-c1noc(-c2ccc(-c3ccccc3C)c(C(F)(F)F)c2)n1` [Compound I62, 3-(2-methoxyphenyl)-5-[2′-methyl-2-(trifluoromethyl)biphenyl-4-yl]-1,2,4-oxadiazole], for which, in assay [1], the EC50 is 4 nM. Besides, affinity in assay [3] was put at a Ki of 8 nM.
As to `COc1ccc(F)cc1-c1noc(-c2cnc(N3CCCCC3C)c(C)c2)n1` (centres unmarked) [Compound I74, 5-[3-(5-fluoro-2-methoxyphenyl)-1,2,4-oxadiazol-5-yl]-3-methyl-2-(2-methylpiperidin-1-yl)pyridine], the EC50 in assay [1] amounted to 5 nM. The Ki in assay [3] was determined as 6 nM.
On to `COc1ccccc1-c1noc(-c2ccc(-c3ccccc3C)c([N+](=O)[O-])c2)n1` [Compound I26, 3-(2-methoxyphenyl)-5-(2′-methyl-2-nitrobiphenyl-4-yl)-1,2,4-oxadiazole], for which the EC50 was 9 nM in assay [1] and 5050 nM in assay [2]. The compound also returned a Ki in assay [3] of 2 nM.
With `CC1CCCCN1c1ccc(-c2nc(-c3ccccc3OC(F)(F)F)no2)cc1[N+](=O)[O-]` (centres unmarked) [Compound I8, 2-methyl-1-(2-nitro-4-{3-[2-(trifluoromethoxy)phenyl]-1,2,4-oxadiazol-5-yl}phenyl)piperidine], the EC50 in assay [1] was 18 nM; in assay [2], more than 30000 nM.
Regarding `COc1ccccc1-c1ccc(-c2nc(-c3ccccc3OC(F)(F)F)no2)cc1C` [Compound I45, 5-(2′-methoxy-2-methylbiphenyl-4-yl)-3-[2-(trifluoromethoxy)phenyl]-1,2,4-oxadiazole], the EC50 in assay [1] was 10 nM; in assay [2] it was more than 20000 nM.
`Cc1cscc1-c1ccc(-c2nc(-c3ccccc3OC(F)(F)F)no2)cc1C(F)(F)F` [Compound I70, 5-[4-(4-methyl-3-thienyl)-3-(trifluoromethyl)phenyl]-3-[2-(trifluoromethoxy)phenyl]-1,2,4-oxadiazole]: the EC50 in assay [1] was 2 nM. The compound further gave a Ki in assay [3] of 4 nM.
`COc1ccccc1-c1noc(-c2ccc(-c3ccccc3C)c(C)c2)n1` [Compound I20, 5-(2,2′-dimethylbiphenyl-4-yl)-3-(2-methoxyphenyl)-1,2,4-oxadiazole]: the EC50 in assay [1] was determined as 44 nM; in assay [2], 3210 nM. In assay [3], this compound displayed a Ki of 16 nM.
The corresponding values for `COc1ccc(F)cc1-c1noc(-c2ccc(N3CCCCC3C)c(NS(C)(=O)=O)c2)n1` (centres unmarked) [Compound I72, N-[5-[3-(5-fluoro-2-methoxyphenyl)-1,2,4-oxadiazol-5-yl]-2-(2-methylpiperidin-1-yl)phenyl]methanesulfonamide] are 8 nM, more than 20000 nM and 46 nM.
For `COc1ccccc1-c1noc(-c2ccc(-c3cscc3C)c(OC)c2)n1` [Compound I48, 5-[3-methoxy-4-(4-methyl-3-thienyl)phenyl]-3-(2-methoxyphenyl)-1,2,4-oxadiazole], in that order: 5 nM, 2180 nM and 4 nM.
As to `COc1ccc(F)cc1-c1noc(-c2ccc(N3CCCCC3C)c([N+](=O)[O-])c2)n1` (centres unmarked) [Compound I32, 1-{4-[3-(5-fluoro-2-methoxyphenyl)-1,2,4-oxadiazol-5-yl]-2-nitrophenyl}-2-methylpiperidine], the EC50 stood at 2 nM in assay [1] and 1700 nM in assay [2]. For the same compound, the Ki in assay [3] worked out at 1 nM.
As for `COc1ccccc1-c1noc(-c2ccc(N3CCCCC3C)c([N+](=O)[O-])c2)n1` (centres unmarked) [Compound I9, 1-{4-[3-(2-methoxyphenyl)-1,2,4-oxadiazol-5-yl]-2-nitrophenyl}-2-methylpiperidine], the EC50 in assay [1] worked out at 7 nM; in assay [2], 5410 nM.
As to `Cc1ccccc1-c1ccc(-c2nc(-c3ccccc3OC(F)(F)F)no2)cc1[N+](=O)[O-]` [Compound I36, 5-(2′-methyl-2-nitrobiphenyl-4-yl)-3-[2-(trifluoromethoxy)phenyl]-1,2,4-oxadiazole], the EC50 in assay [1] came out at 10 nM; in assay [2], 2100 nM.
As for `COc1ccc(F)cc1-c1noc(-c2ccc(N3CCCCC3)c(C(F)(F)F)c2)n1` [Compound I60, 1-[4-[3-(5-fluoro-2-methoxyphenyl)-1,2,4-oxadiazol-5-yl]-2-(trifluoromethyl)phenyl]piperidine], the values for the EC50 in assay [1] and in assay [2] were 2 nM and 617 nM, respectively. In assay [3], this compound yielded a Ki of 1 nM.
For the compound `CCOc1ccccc1-c1noc(-c2ccc(-c3ccccc3C)c(C)c2)n1` [Compound I22, 5-(2,2′-dimethylbiphenyl-4-yl)-3-(2-ethoxyphenyl)-1,2,4-oxadiazole], the results for the EC50 in assay [1] and in assay [2] were 51 nM and more than 30000 nM, respectively.
Take `CCOc1ccccc1-c1noc(-c2ccc(N3CCCCC3C)c([N+](=O)[O-])c2)n1` (centres unmarked) [Compound I10, 1-{4-[3-(2-ethoxyphenyl)-1,2,4-oxadiazol-5-yl]-2-nitrophenyl}-2-methylpiperidine]: the EC50 in assay [1] is 24 nM; in assay [2], more than 30000 nM.
As for `COc1cc(-c2nc(-c3ccccc3OC(F)(F)F)no2)ccc1-c1ccccc1C` [Compound I53, 5-(2-methoxy-2′-methylbiphenyl-4-yl)-3-[2-(trifluoromethoxy)phenyl]-1,2,4-oxadiazole], the EC50 was 14 nM in assay [1] and more than 20000 nM in assay [2].
On to `FC(F)(F)Oc1ccccc1-c1noc(-c2ccc(N3CCCCC3)cc2)n1` [Compound I3, 1-(4-{3-[2-(trifluoromethoxy)phenyl]-1,2,4-oxadiazol-5-yl}phenyl)piperidine], for which the EC50 in assay [1] was found to be 1780 nM. In assay [3], the Ki amounted to 652 nM.
Regarding `FC(F)(F)Oc1ccccc1-c1noc(-c2ccc(N3CCOCC3)c(C(F)(F)F)c2)n1` [Compound I19, 4-[4-{3-[2-(trifluoromethoxy)phenyl]-1,2,4-oxadiazol-5-yl}-2-(trifluoromethyl)phenyl]morpholine], the EC50 in assay [1] is 18 nM; in assay [2] it was more than 30000 nM.
Take `COc1ccc(F)cc1-c1noc(-c2ccc(-c3ccccc3C)c(C)c2)n1` [Compound I33, 5-(2,2′-dimethylbiphenyl-4-yl)-3-(5-fluoro-2-methoxyphenyl)-1,2,4-oxadiazole]: in assay [1], the EC50 was 6 nM. Also, the Ki in assay [3] came to 43 nM.
With `COc1ccccc1-c1noc(-c2ccc(N3CCCC(F)(F)C3)c([N+](=O)[O-])c2)n1` [Compound I12, 3,3-difluoro-1-{4-[3-(2-methoxyphenyl)-1,2,4-oxadiazol-5-yl]-2-nitrophenyl}piperidine], the values for the EC50 in assay [1] and in assay [2] were 36 nM and more than 30000 nM, respectively.
The corresponding values for `COc1ccc(F)cc1-c1noc(-c2ccc(N3CCCCC3C)c(N)c2)n1` (centres unmarked) [Compound I69, 5-[3-(5-fluoro-2-methoxyphenyl)-1,2,4-oxadiazol-5-yl]-2-(2-methylpiperidin-1-yl)aniline] are 24 nM and 270 nM.
For the compound `FC(F)(F)Oc1ccccc1-c1noc(-c2ccc(C3CCCCC3)cc2)n1` [Compound I29, 5-(4-cyclohexylphenyl)-3-[2-(trifluoromethoxy)phenyl]-1,2,4-oxadiazole], in assay [1], the half-maximal effective concentration (EC50) was 59 nM. For the same compound, affinity in assay [3] was put at a Ki of 25 nM.
`COc1ccccc1-c1noc(-c2ccc(N3CCCCC3)cc2)n1` [Compound I4, 1-{4-[3-(2-methoxyphenyl)-1,2,4-oxadiazol-5-yl]phenyl}piperidine]: in assay [1], the EC50 turned out to be 3600 nM. The same compound registered a Ki in assay [3] of 1070 nM.
With `COc1cc(-c2nc(-c3ccccc3OC(F)(F)F)no2)ccc1-c1cscc1C` [Compound I54, 5-[3-methoxy-4-(4-methyl-3-thienyl)phenyl]-3-[2-(trifluoromethoxy)phenyl]-1,2,4-oxadiazole], the EC50 in assay [1] was 13 nM; in assay [2] it was more than 30000 nM.
Take `FC(F)(F)Oc1ccccc1-c1noc(-c2ccc(N3CCCCC3)c(C(F)(F)F)c2)n1` [Compound I61, 1-[4-{3-[2-(trifluoromethoxy)phenyl]-1,2,4-oxadiazol-5-yl}-2-(trifluoromethyl)phenyl]piperidine]: the EC50 in assay [1] was 4 nM. Also, the Ki in assay [3] amounted to 54 nM.
